Results published in US20250171437A1 (Agios Pharmaceuticals,Inc., priority 2022, published 2025).

target: T1, human PAH with the R408W mutation (A375 R408W cells) (Homo sapiens, UniProt P00439, R408W); assay: Cell Based Phenylalanine Flux Assay; conditions: A375 R408W cells; 24 hrs with compound, then 20 μM sepiapterin and 800 μM 13C9,15N-Phenylalanine for 4 hours; 13C-Tyrosine by LC-MS; average where tested multiple times
T1 construct: expressed in transfected cells
T1 sequence (P00439 1-452 R408W): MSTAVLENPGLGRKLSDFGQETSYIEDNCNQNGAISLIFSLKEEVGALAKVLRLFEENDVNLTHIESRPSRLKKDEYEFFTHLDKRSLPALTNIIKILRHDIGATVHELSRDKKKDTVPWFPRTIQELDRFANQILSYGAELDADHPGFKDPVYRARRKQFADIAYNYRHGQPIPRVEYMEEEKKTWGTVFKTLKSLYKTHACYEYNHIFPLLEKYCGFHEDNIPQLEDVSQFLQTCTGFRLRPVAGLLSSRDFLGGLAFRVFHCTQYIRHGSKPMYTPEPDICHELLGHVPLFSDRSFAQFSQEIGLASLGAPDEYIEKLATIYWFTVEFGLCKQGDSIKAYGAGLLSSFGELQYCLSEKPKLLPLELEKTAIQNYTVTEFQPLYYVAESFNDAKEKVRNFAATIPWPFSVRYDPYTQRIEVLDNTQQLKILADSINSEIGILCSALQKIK
Procedure: Cells expressing R408W PAH were made by transducing A375 cells with lentivirus encoding human PAH with the R408W mutation in pLVX-Puro, then selecting with puromycin until stable cell lines were generated. A375 R408W cells were seeded into 96 well plates in DMEM+10% FBS at a density of 40,000 cells/well one hour prior to compound addition. Compounds were resuspended in DMSO, and 2-fold serial dilutions were performed to generate a 10-point dose curve. Compounds were added to plated cells in a total volume of 100 μl, and a final DMSO concentration of 0.5%. Each compound was tested in duplicate. Following compound addition, cells were placed in a 5% CO2, 37° C. tissue culture incubator for 24 hrs. After the incubation period, 20 μM sepiapterin and 800 μM 13C9,15N-Phenylalanine were added. After 4 hours, cell media was removed. An aliquot of 10 μl of cell media was combined with 200 μl of extraction buffer (80% acetonitrile/20% H2O) for each well. Determination of ^13C-Tyrosine concentration was assessed by liquid chromatography mass spectrometry.
Specific compounds disclosed herein were tested in the foregoing assay and they were determined to have an AC50 according to the following scores: (A) less than or equal to 0.500 μM, (B) greater than 0.500 and less than […], (C) greater than or equal to 1.000 and less than 5.000 μM, (D) greater than or equal to 5.000 μM, (E) no fit, and (NT) not tested, as shown below. Where a compound was tested multiple times, the average value of the tests is reported.

**Q.** `Cn1nc(C(F)F)nc1C(=O)N1CCc2[nH]cnc2[C@@H]1c1nc2ccccc2o1` [Example 562, (R)-(4-(benzo[d]oxazol-2-yl)-6,7-dihydro-1H-imidazo[4,5-c]pyridin-5(4H)-yl)(3-(difluoromethyl)-1-methyl-1H-1,2,4-triazol-5-yl)methanone] was tested. Which AC50 did it give?
**A.** Its AC50 is 1000 to 5000 nM.

**Q.** Which AC50 does the source give for `COc1cccc2nc([C@H]3c4nc[nH]c4CCN3C(=O)c3cc(C)nn3C)oc12` [Example 822, (R)-(1,3-dimethyl-1H-pyrazol-5-yl)(4-(7-methoxybenzo[d]oxazol-2-yl)-6,7-dihydro-1H-imidazo[4,5-c]pyridin-5(4H)-yl)methanone] here?
**A.** Its AC50 is 1000 to 5000 nM.

**Q.** How did the AC50 turn out when `Cc1ccc2nc([C@H]3c4nc[nH]c4CCN3C(=O)c3oc(C(C)(C)O)nc3Br)oc2c1` [Example 440, (R)-(4-bromo-2-(2-hydroxypropan-2-yl)oxazol-5-yl)(4-(6-methylbenzo[d]oxazol-2-yl)-6,7-dihydro-1H-imidazo[4,5-c]pyridin-5(4H)-yl)methanone] was run?
**A.** Its AC50 is 1000 to 5000 nM.

**Q.** Which AC50 does the source give for `O=C(c1ccnn1C(F)F)N1CCc2[nH]cnc2[C@H]1c1nc2c(F)cc(F)cc2o1` [Example 489, (S)-(4-(4,6-difluorobenzo[d]oxazol-2-yl)-6,7-dihydro-1H-imidazo[4,5-c]pyridin-5(4H)-yl)(1-(difluoromethyl)-1H-pyrazol-5-yl)methanone] here?
**A.** Its AC50 is 500 to 1000 nM.

**Q.** How did the AC50 turn out when `CC(C)(O)c1nc(C(F)F)c(C(=O)N2CCc3[nH]cnc3[C@H]2c2nc3cccc(F)c3o2)o1` [Example 193, (S)-(4-(difluoromethyl)-2-(2-hydroxypropan-2-yl)oxazol-5-yl)(4-(7-fluorobenzo[d]oxazol-2-yl)-6,7-dihydro-1H-imidazo[4,5-c]pyridin-5(4H)-yl)methanone] was run?
**A.** Its AC50 is ≤ 500 nM.

**Q.** How did the AC50 turn out when `O=C(c1nnc(-c2cnn(C(F)F)c2)o1)N1CCc2[nH]cnc2[C@H]1c1nc2ccccc2o1` [Example 841, (S)-(4-(benzo[d]oxazol-2-yl)-6,7-dihydro-1H-imidazo[4,5-c]pyridin-5(4H)-yl)(5-(1-(difluoromethyl)-1H-pyrazol-4-yl)-1,3,4-oxadiazol-2-yl)methanone] was run?
**A.** Its AC50 is ≤ 500 nM.

**Q.** Which AC50 does the source give for `O=C(c1nnc(-c2ccc(OC(F)(F)F)cn2)o1)N1CCc2[nH]cnc2[C@H]1c1nc2cc(F)ccc2o1` [Example 671, (S)-(4-(5-fluorobenzo[d]oxazol-2-yl)-6,7-dihydro-1H-imidazo[4,5-c]pyridin-5(4H)-yl)(5-(5-(trifluoromethoxy)pyridin-2-yl)-1,3,4-oxadiazol-2-yl)methanone] here?
**A.** The AC50 was 1000 to 5000 nM.

**Q.** `O=C(c1ocnc1C(F)F)N1CCc2[nH]cnc2[C@@H]1c1nc2c(F)cc(F)cc2o1` [Example 302, (R)-(4-(4,6-difluorobenzo[d]oxazol-2-yl)-6,7-dihydro-1H-imidazo[4,5-c]pyridin-5(4H)-yl)(4-(difluoromethyl)oxazol-5-yl)methanone] was tested. Which AC50 did it give?
**A.** Its AC50 is 1000 to 5000 nM.

**Q.** How did the AC50 turn out when `Cc1ccc2c(C(=O)N3CCc4[nH]cnc4[C@@H]3c3nc4cccc(F)c4o3)cnn2c1` [Example 324, (R)-(4-(7-fluorobenzo[d]oxazol-2-yl)-6,7-dihydro-1H-imidazo[4,5-c]pyridin-5(4H)-yl)(6-methylpyrazolo[1,5-a]pyridin-3-yl)methanone] was run?
**A.** Its AC50 is 1000 to 5000 nM.

**Q.** Which AC50 does the source give for `Cc1cccc2nc([C@@H]3c4nc[nH]c4CCN3C(=O)c3ccnn3C)oc12` [Example 747, (S)-(1-methyl-1H-pyrazol-5-yl)(4-(7-methylbenzo[d]oxazol-2-yl)-6,7-dihydro-1H-imidazo[4,5-c]pyridin-5(4H)-yl)methanone] here?
**A.** The AC50 was ≤ 500 nM.

**Q.** Which AC50 does the source give for `Cc1cccc2nc([C@H]3c4nc[nH]c4CCN3C(=O)c3nnc(-c4ccn(C)n4)o3)oc12` [Example 870, (R)-(5-(1-methyl-1H-pyrazol-3-yl)-1,3,4-oxadiazol-2-yl)(4-(7-methylbenzo[d]oxazol-2-yl)-6,7-dihydro-1H-imidazo[4,5-c]pyridin-5(4H)-yl)methanone] here?
**A.** Its AC50 is 1000 to 5000 nM.

**Q.** With `Cn1cc(-c2nc(C(F)(F)F)c(C(=O)N3CCc4[nH]cnc4[C@H]3c3nc4cccc(F)c4o3)o2)cn1` [Example 669, (S)-(4-(7-fluorobenzo[d]oxazol-2-yl)-6,7-dihydro-1H-imidazo[4,5-c]pyridin-5(4H)-yl)(2-(1-methyl-1H-pyrazol-4-yl)-4-(trifluoromethyl)oxazol-5-yl)methanone] as the compound, how does the AC50 read?
**A.** The AC50 was ≤ 500 nM.

**Q.** With `Cn1ccc(-c2nnc(C(=O)N3CCc4[nH]cnc4[C@H]3c3nc4cc(F)ccc4o3)o2)n1` [Example 106, (S)-(4-(5-fluorobenzo[d]oxazol-2-yl)-6,7-dihydro-1H-imidazo[4,5-c]pyridin-5(4H)-yl)(5-(1-methyl-1H-pyrazol-3-yl)-1,3,4-oxadiazol-2-yl)methanone] as the compound, how does the AC50 read?
**A.** Its AC50 is 1000 to 5000 nM.

**Q.** For `COc1cccc2oc([C@@H]3c4nc[nH]c4CCN3C(=O)c3nc(C)nn3C)nc12` [Example 827, (S)-(1,3-dimethyl-1H-1,2,4-triazol-5-yl)(4-(4-methoxybenzo[d]oxazol-2-yl)-6,7-dihydro-1H-imidazo[4,5-c]pyridin-5(4H)-yl)methanone], which AC50 is on record?
**A.** Its AC50 is 1000 to 5000 nM.

**Q.** How did the AC50 turn out when `CN1CCN(c2ccc3c(C(=O)N4CCc5[nH]cnc5[C@H]4c4nc5cc(F)ccc5o4)cnn3c2)CC1(C)C` [Example 139, (S)-(4-(5-fluorobenzo[d]oxazol-2-yl)-6,7-dihydro-1H-imidazo[4,5-c]pyridin-5(4H)-yl)(6-(3,3,4-trimethylpiperazin-1-yl)pyrazolo[1,5-a]pyridin-3-yl)methanone] was run?
**A.** Its AC50 is 500 to 1000 nM.

**Q.** How did the AC50 turn out when `O=C(c1nnc(-c2ccccn2)o1)N1Cc2[nH]cnc2[C@H]1c1nc2ccccc2o1` [Example 937, (S)-(4-(benzo[d]oxazol-2-yl)-4,6-dihydropyrrolo[3,4-d]imidazol-5(1H)-yl)(5-(pyridin-2-yl)-1,3,4-oxadiazol-2-yl)methanone] was run?
**A.** The AC50 was 1000 to 5000 nM.

**Q.** Which AC50 does the source give for `Cc1ccc2c(C(=O)N3CCc4[nH]cnc4[C@@H]3c3nc4c(F)cccc4o3)cnn2c1` [Example 538, (R)-(4-(4-fluorobenzo[d]oxazol-2-yl)-6,7-dihydro-1H-imidazo[4,5-c]pyridin-5(4H)-yl)(6-methylpyrazolo[1,5-a]pyridin-3-yl)methanone] here?
**A.** Its AC50 is 1000 to 5000 nM.

**Q.** For `O=C(c1ccnn1C(F)(F)F)N1CCc2[nH]cnc2[C@H]1c1nc2c(F)cccc2o1` [Example 293, (S)-(4-(4-fluorobenzo[d]oxazol-2-yl)-6,7-dihydro-1H-imidazo[4,5-c]pyridin-5(4H)-yl)(1-(trifluoromethyl)-1H-pyrazol-5-yl)methanone], which AC50 is on record?
**A.** Its AC50 is ≤ 500 nM.

**Q.** For `O=C(c1ocnc1C(F)F)N1CCc2[nH]cnc2[C@@H]1c1nc2c(OC(F)(F)F)cccc2o1` [Example 535, (R)-(4-(difluoromethyl)oxazol-5-yl)(4-(4-(trifluoromethoxy)benzo[d]oxazol-2-yl)-6,7-dihydro-1H-imidazo[4,5-c]pyridin-5(4H)-yl)methanone], which AC50 is on record?
**A.** Its AC50 is ≤ 500 nM.

same assay, conditions: A375 cells expressing R408W PAH; 24 hrs with compound, then 20 μM sepiapterin and 800 μM 13C9,15N-Phenylalanine for 4 hours; 13C-Tyrosine by LC-MS; average where tested multiple times

**Q.** Which AC50 does the source give for `Cc1cccc2nc(C3c4nc[nH]c4CCN3C(=O)c3cnc(C(C)(C)O)o3)oc12` (stereo not drawn) here?
**A.** The AC50 was 1000 to 5000 nM.

**Q.** Which AC50 does the source give for `O=C(c1cnn2cc(N3CCC4(CC3)CC4)ccc12)N1CCc2[nH]cnc2C1c1nc2cc(F)ccc2o1` (stereo not drawn) here?
**A.** Its AC50 is ≥ 5000 nM.

**Q.** Which AC50 does the source give for `CC(C)(O)c1ncc(C(=O)N2CCc3[nH]cnc3C2c2nc3cc(F)cc(F)c3o2)o1` (stereo not drawn) here?
**A.** Its AC50 is 1000 to 5000 nM.

**Q.** With `O=C(c1nnc(-c2ccn(C(F)F)n2)o1)N1CCc2[nH]cnc2C1c1nc2cc(C(F)(F)F)ccc2o1` (stereo not drawn) as the compound, how does the AC50 read?
**A.** Its AC50 is 1000 to 5000 nM.

**Q.** How did the AC50 turn out when `O=C(C1CN(c2ccccn2)C1)N1CCc2[nH]cnc2C1c1nc2cc(F)ccc2o1` (stereo not drawn) was run?
**A.** The AC50 was ≥ 5000 nM.

**Q.** For `Cc1ccc2oc(C3c4nc[nH]c4CCN3C(=O)c3nnc(C(C)(C)O)o3)nc2c1` (stereo not drawn), which AC50 is on record?
**A.** The AC50 was ≥ 5000 nM.

**Q.** How did the AC50 turn out when `O=C(c1nncn1C1CC1)N1CCc2[nH]cnc2C1c1nc2cc(F)ccc2o1` (stereo not drawn) was run?
**A.** The AC50 was ≥ 5000 nM.

**Q.** Which AC50 does the source give for `COc1ccc2oc(C3c4nc[nH]c4CCN3C(=O)c3nc(C)nn3C)nc2c1` (stereo not drawn) here?
**A.** The AC50 was 1000 to 5000 nM.
